Literature values, collected in patent publication US20050112193A1, “Immediate-release formulations of acid-labile pharmaceutical compositions” (priority 2003, published 2005).
Read-outs that look alike come from different tables or passages of the source.

Columns and labels:
[1] = for time to undergo 50% degradation: acidic stomach / gastric environment, pH of 1.2 given for pantoprazole sodium and rabeprazole sodium
[2] = in water

Structure (SMILES) | time to undergo 50% degradation [1] | time for 50% of drug to be degraded (t ½) ([1]; pH 1.2) [h] | time for 50% of drug to be degraded (t ½) ([1]; pH 5.1) [h] | time for 50% of drug to be degraded (t ½) ([1]; pH 6) [h] | time for 50% of drug to be degraded (t ½) ([1]; pH 7) [h] | pKa | Solubility ([2]; listed as Lansoprazole base) | Solubility ([2]; listed as Omeprazole base) | time for 50% of drug to be degraded (t ½) ([1]; pH 5) [h] | Solubility [2]
Cc1c(OCC(F)(F)F)ccnc1C[S+]([O-])c1nc2ccccc2[nH]1 (stereo not drawn) [Lansoprazole] | 2 min | 0.0333 | 1.5 | 6.4 | 35 | 4.1 | very slightly soluble |  |  | 
COc1ccc2[nH]c([S+]([O-])Cc3ncc(C)c(OC)c3C)nc2c1 (stereo not drawn) [Omeprazole, 5-methoxy-2-[[(4-methoxy-3,5-dimethyl-2-pyridinyl)methyl]sulfinyl]-1H-benzimidazole] | less than 3 minutes | 0.0467 | 1.4 | 7.3 | 39 | 3.9 |  | slightly soluble |  | 
COc1ccnc(C[S+]([O-])c2nc3ccc(OC(F)F)cc3[nH]2)c1OC (stereo not drawn) [Pantoprazole sodium] | less than 5 minutes | 0.0767 | 4.7 | 21 | 73 | 3 |  |  | 2.8 | very soluble
COCCCOc1ccnc(C[S+]([O-])c2nc3ccccc3[nH]2)c1C (stereo not drawn) [Rabeprazole sodium] | less than 1.5 minutes | 0.0217 | 0.12 |  |  | 4.9 |  |  |  | Very soluble
